The values below come from article PMC3371050, “Characterisation of a Novel White Laccase from the Deuteromycete Fungus Myrothecium verrucaria NF-05 and Its Decolourisation of Dyes” (PLoS ONE, 2012).

Like-named read-outs stand apart in the source and are kept apart here.

Common to all, as to conditions: 0.2 M citric acid pH 4.0, 30°C
Assay [1] relates to white laccase from Myrothecium verrucaria NF-05.
For assay [2], the system named is T1, white laccase from Myrothecium verrucaria NF-05.
T1 construct: native extracellular enzyme purified from culture medium; about 66 kDa monomer; 3 Cu and 1 Fe per molecule; no bilirubin oxidase activity detected in the fermentation liquid
Kind of assay: oxidation at […] nm, Lineweaver-Burk. Format: biochemical, Albifimbria verrucaria.

Assay [3] has the same test system. The experiment in a line: oxidation at […] nm, Lineweaver-Burk. It is filed as biochemical, Albifimbria verrucaria. This is another data set of the same source.
Assay [4] deals with white laccase from Myrothecium verrucaria NF-05. This is another data set of the same source.

On to `CCn1c(=NN=c2sc3cc(S(=O)(=O)O)ccc3n2CC)sc2cc(S(=O)(=O)O)ccc21` [ABTS, 2,2′-azinobis-(3-ethylbenzothiazoline-6-sulphonic acid)], for which, in assay [1], the Km was 85.9 µM.
For `Oc1ccccc1O` [catechol], the Michaelis constant (Km) in assay [2] was 329 µM.
In the case of `COc1ccccc1O` [guaiacol], in assay [3], the Km was found to be 312 µM.
For `Oc1ccc(O)cc1` [hydroquinone], the Km in assay [4] is 2090 µM.
